The source of these data is patent US9499550B2 (BRISTOL-MYERS SQUIBB COMPANY, priority 2012, dated 2016).

The subject of assay [1] is HCV genotype 1a (H77 strain) replicon in HUH-7 cells. Description: HCV replicon luciferase reporter assay, genotype 1a. Particulars: Hepatitis C virus, Huh-7, 72 h, HCV genotype 1a replicon luciferase assay, 3 days incubation, range class, read-out: LE_1a (EC50, range). It counts as cell-based. In short, it runs like this:
(§1)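 Replicon inhibition for both genotypes was measured as Renilla luciferase signal (EnduRen, 7.5 μM final, 2 h) after 3-day, 37° C exposure of replicon-bearing HUH-7 cells in 4% FCS DMEM, 0.5% DMSO. The 1b construct carries S1179I; the 1a H77 construct carries P1496L and S2204I. Twenty-point, 3-fold dilutions were fitted four-parametrically for EC50, and CC50 was taken from multiplexed Cell Titer-Blue.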
On the technique in general: Replicon systems follow genome replication, usually without infectious particles.

In assay [2] the test system is HCV genotype 1b (Con1) replicon in HUH-7 cells. Description: HCV replicon luciferase reporter assay, genotype 1b. The settings on record: Hepatitis C virus, Huh-7, 72 h, HCV genotype 1b replicon luciferase assay, 3 days incubation, range class, read-out: LE_1b (EC50, range). It counts as cell-based. In short, it runs like this:
as §1

With `COc1ccc2c(O[C@@H]3C[C@H]4C(=O)N[C@]5(C(=O)NS(=O)(=O)C6CC6)C[C@H]5/C=C\CC[C@@H](C)C[C@@H](C)[C@H](NC(=O)OC(C)(C)C)C(=O)N4C3)nc(-c3ccc(F)cc3)cc2c1` [Compound 3042, tert-butyl ((2R,6S,7R,9R,13aS,14aR,16aS,Z)-14a-((cyclopropylsulfonyl)carbamoyl)-2-((3-(4-fluorophenyl)-6-methoxyisoquinolin-1-yl)oxy)-7,9-dimethyl-5,16-dioxo-1,2,3,5,6,7,8,9,10,11,13a,14,14a,15,16,16a-hexadecahydrocyclopropa[e]pyrrolo[1,2-a][1,4]diazacyclopentadecin-6-yl)carbamate], the EC50 in assay [1] and in assay [2] was under 5.46 nM in each case.

In the case of `COc1ccc2c(O[C@@H]3C[C@H]4C(=O)N[C@]5(C(=O)NS(=O)(=O)C6CC6)C[C@H]5/C=C\CC[C@H](C)C[C@@H](C)[C@H](NC(=O)OC(C)(C)C(F)(F)F)C(=O)N4C3)nc(-c3ccc(F)cc3)cc2c1` [Compound 3043, 1,1,1-trifluoro-2-methylpropan-2-yl((2R,6S,7R,9S,13aS,14aR,16aS,Z)-14a-((cyclopropylsulfonyl)carbamoyl)-2-((3-(4-fluorophenyl)-6-methoxyisoquinolin-1-yl)oxy)-7,9-dimethyl-5,16-dioxo-1,2,3,5,6,7,8,9,10,11,13a,14,14a,15,16,16a-hexadecahydrocyclopropa[e]pyrrolo[1,2-a][1,4]diazacyclopentadecin-6-yl)carbamate], the EC50 in assay [1] and in assay [2] was under 5.46 nM in each case.

Take `COc1ccc2c(O[C@@H]3C[C@H]4C(=O)N[C@]5(C(=O)NS(=O)(=O)C6CC6)C[C@H]5/C=C\CC[C@@H](C)C[C@@H](C)[C@H](NC(=O)OC(C)(C)C(F)(F)F)C(=O)N4C3)nc(-c3ccc(F)cc3)cc2c1` [Compound 3044, 1,1,1-trifluoro-2-methylpropan-2-yl((2R,6S,7R,9R,13aS,14aR,16aS,Z)-14a-((cyclopropylsulfonyl)carbamoyl)-2-((3-(4-fluorophenyl)-6-methoxyisoquinolin-1-yl)oxy)-7,9-dimethyl-5,16-dioxo-1,2,3,5,6,7,8,9,10,11,13a,14,14a,15,16,16a-hexadecahydrocyclopropa[e]pyrrolo[1,2-a][1,4]diazacyclopentadecin-6-yl)carbamate]: the EC50 in assay [1] and in assay [2] was under 5.46 nM in each case.

For `COc1ccc2c(O[C@@H]3C[C@H]4C(=O)N[C@]5(C(=O)NS(=O)(=O)C6CC6)C[C@H]5/C=C\CC[C@H](C)C[C@@H](C)[C@H](NC(=O)O[C@@H]5C[C@@H]6C[C@@H]6C5)C(=O)N4C3)nc(-c3ccc(F)cc3)cc2c1` [Compound 3045, (1R,3r,5S)-bicyclo[3.1.0]hexan-3-yl((2R,6S,7R,9S,13aS,14aR,16aS,Z)-14a-((cyclopropylsulfonyl)carbamoyl)-2-((3-(4-fluorophenyl)-6-methoxyisoquinolin-1-yl)oxy)-7,9-dimethyl-5,16-dioxo-1,2,3,5,6,7,8,9,10,11,13a,14,14a,15,16,16a-hexadecahydrocyclopropa[e]pyrrolo[1,2-a][1,4]diazacyclopentadecin-6-yl)carbamate], the EC50 in assay [1] and in assay [2] was under 5.46 nM each time.

Turning to `COc1ccc2c(O[C@@H]3C[C@H]4C(=O)N[C@]5(C(=O)NS(=O)(=O)C6CC6)C[C@H]5/C=C\CC[C@@H](C)C[C@@H](C)[C@H](NC(=O)O[C@@H]5C[C@@H]6C[C@@H]6C5)C(=O)N4C3)nc(-c3ccc(F)cc3)cc2c1` [Compound 3046, (1R,3r,5S)-bicyclo[3.1.0]hexan-3-yl((2R,6S,7R,9R,13aS,14aR,16aS,Z)-14a-((cyclopropylsulfonyl)carbamoyl)-2-((3-(4-fluorophenyl)-6-methoxyisoquinolin-1-yl)oxy)-7,9-dimethyl-5,16-dioxo-1,2,3,5,6,7,8,9,10,11,13a,14,14a,15,16,16a-hexadecahydrocyclopropa[e]pyrrolo[1,2-a][1,4]diazacyclopentadecin-6-yl)carbamate], the EC50 in assay [1] and in assay [2] was under 5.46 nM throughout.

Consider `COc1ccc2c(O[C@@H]3C[C@H]4C(=O)N[C@]5(C(=O)NS(=O)(=O)C6CC6)C[C@H]5/C=C\CC[C@H](C)C[C@@H](C)[C@H](NC(=O)OC(C)(C)C)C(=O)N4C3)nc(-c3ccc(OC)c(Cl)c3)cc2c1` [Compound 3047, tert-butyl ((2R,6S,7R,9S,13aS,14aR,16aS,Z)-2-((3-(3-chloro-4-methoxyphenyl)-6-methoxyisoquinolin-1-yl)oxy)-14a-((cyclopropylsulfonyl)carbamoyl)-7,9-dimethyl-5,16-dioxo-1,2,3,5,6,7,8,9,10,11,13a,14,14a,15,16,16a-hexadecahydrocyclopropa[e]pyrrolo[1,2-a][1,4]diazacyclopentadecin-6-yl)carbamate], for which the concentration giving a half-maximal response (EC50) in assay [1] was 4.82 to 103 nM; in assay [2], under 5.46 nM.

For the molecule `COc1ccc2c(O[C@@H]3C[C@H]4C(=O)N[C@]5(C(=O)NS(=O)(=O)C6CC6)C[C@H]5/C=C\CC[C@@H](C)C[C@@H](C)[C@H](NC(=O)OC(C)(C)C)C(=O)N4C3)nc(-c3ccc(OC)c(Cl)c3)cc2c1` [Compound 3048, tert-butyl ((2R,6S,7R,9R,13aS,14aR,16aS,Z)-2-((3-(3-chloro-4-methoxyphenyl)-6-methoxyisoquinolin-1-yl)oxy)-14a-((cyclopropylsulfonyl)carbamoyl)-7,9-dimethyl-5,16-dioxo-1,2,3,5,6,7,8,9,10,11,13a,14,14a,15,16,16a-hexadecahydrocyclopropa[e]pyrrolo[1,2-a][1,4]diazacyclopentadecin-6-yl)carbamate], the EC50 in assay [1] and in assay [2] was under 5.46 nM each time.

For the molecule `COc1ccc2c(O[C@@H]3C[C@H]4C(=O)N[C@]5(C(=O)NS(=O)(=O)C6CC6)C[C@H]5/C=C\CC[C@H](C)C[C@@H](C)[C@H](NC(=O)OC(C)(C)C)C(=O)N4C3)nc(-c3ccc(OC)c(F)c3)cc2c1` [Compound 3049, tert-butyl ((2R,6S,7R,9S,13aS,14aR,16aS,Z)-14a-((cyclopropylsulfonyl)carbamoyl)-2-((3-(3-fluoro-4-methoxyphenyl)-6-methoxyisoquinolin-1-yl)oxy)-7,9-dimethyl-5,16-dioxo-1,2,3,5,6,7,8,9,10,11,13a,14,14a,15,16,16a-hexadecahydrocyclopropa[e]pyrrolo[1,2-a][1,4]diazacyclopentadecin-6-yl)carbamate], the EC50 in assay [1] and in assay [2] was under 5.46 nM in each case.

In the case of `COc1ccc2c(O[C@@H]3C[C@H]4C(=O)N[C@]5(C(=O)NS(=O)(=O)C6CC6)C[C@H]5/C=C\CC[C@@H](C)C[C@@H](C)[C@H](NC(=O)OC(C)(C)C)C(=O)N4C3)nc(-c3ccc(OC)c(F)c3)cc2c1` [Compound 3050, tert-butyl ((2R,6S,7R,9R,13aS,14aR,16aS,Z)-14a-((cyclopropylsulfonyl)carbamoyl)-2-((3-(3-fluoro-4-methoxyphenyl)-6-methoxyisoquinolin-1-yl)oxy)-7,9-dimethyl-5,16-dioxo-1,2,3,5,6,7,8,9,10,11,13a,14,14a,15,16,16a-hexadecahydrocyclopropa[e]pyrrolo[1,2-a][1,4]diazacyclopentadecin-6-yl)carbamate], the EC50 in assay [1] and in assay [2] was under 5.46 nM throughout.

Usually EC50 stands for the concentration giving half of the maximal effect.
